Test results reported in the NIST ThermoML archive (doi:10.1016/j.jct.2018.12.022).
Numbers after ± are expanded uncertainties.

Assays:
[1] = refractive index (Na D-line) (dimensionless); settings: 298.15 K; 101.33 kPa; Liquid; Standard Abbe refractometry
[2] = 298.15 K, 101.33 kPa, Liquid

## C[C@H](N)C(=O)[O-].C[N+](C)(C)CCO [2-hydroxy-N,N,N-trimethylethanaminium L-alaninate]
[1]
  refractive index: 1.4868 ± 0.0006
[2]; Falling or rolling sphere viscometry
  viscosity: 715 ± 70 mPa·s
[2]; Vibrating tube method
  mass density: 1122.56 ± 1.1 kg/m3
